The target in one assay is Cytochrome b6-f complex subunit 4 (Spinacia oleracea, UniProt P00166). In words: Inhibition of photosynthetic electron transport protein complex in Spinacia oleracea (spinach) leaf thylakoid membranes measured at 30 seconds intervals for 10 min.
Chain of Cytochrome b6-f complex subunit 4 (P00166 whole entry, one chain of several): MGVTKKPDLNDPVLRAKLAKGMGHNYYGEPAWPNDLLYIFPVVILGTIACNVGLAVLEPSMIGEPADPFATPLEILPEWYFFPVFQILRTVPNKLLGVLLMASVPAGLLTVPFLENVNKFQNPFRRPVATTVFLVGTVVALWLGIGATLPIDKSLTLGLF
The IC50 is the concentration that gives 50% inhibition. A higher IC50 goes with weaker potency in that assay. `O=C1O/C(=C\c2ccc(O)cc2)C=C1Cc1ccccc1` yielded an IC50 of more than 200 µM.

Regarding `O=C1O/C(=C\c2ccc(C(F)(F)F)cc2)C=C1Cc1ccccc1`, half-maximal inhibition (IC50) required 8.3 µM. On the same count and under the same terms, then `O=C1O/C(=C\c2ccc([N+](=O)[O-])cc2)C=C1Cc1ccccc1`, with 1.7 µM; and `O=C1O/C(=C\c2ccccc2O)C=C1Cc1ccccc1`, with more than 200 µM; and `O=C1O/C(=C\c2ccc(Br)cc2)C=C1Cc1ccccc1`, with more than 200 µM. The compound `Cc1ccccc1/C=C1/C=C(Cc2ccccc2)C(=O)O1` had an IC50 of 23.5 µM. Regarding `COc1ccc(/C=C2/C=C(Cc3ccccc3)C(=O)O2)cc1`, the IC50 was found to be 53.7 µM. This IC50 lies about 2.3-fold higher than the previous one. As for `N#Cc1ccc(/C=C2/C=C(Cc3ccccc3)C(=O)O2)cc1`, the IC50 is more than 200 µM. `O=C1O/C(=C\c2ccc(-c3ccccc3)cc2)C=C1Cc1ccccc1` returned an IC50 of more than 200 µM.

As for `O=C1O/C(=C\c2cccc(O)c2)C=C1Cc1ccccc1`, the IC50 was more than 200 µM. Still for that read-out and setting: in the case of `Cc1ccc(/C=C2/C=C(Cc3ccccc3)C(=O)O2)cc1` it was more than 200 µM; in that of `O=C1O/C(=C\c2ccc3c(c2)OCO3)C=C1Cc1ccccc1`, more than 200 µM. Turning to `O=C1O/C(=C\c2cccc(C(F)(F)F)c2)C=C1Cc1ccccc1`, it took 10 µM to reach half-maximal inhibition (IC50). This counts as double-digit micromolar. In the case of `O=C1O/C(=C\c2ccccc2F)C=C1Cc1ccccc1`, the IC50 turned out to be 10.1 µM. On the same count and under the same terms, then `COc1ccc(OC)c(/C=C2/C=C(Cc3ccccc3)C(=O)O2)c1`, with 19.4 µM; and `O=C1O/C(=C\c2ccccc2)C=C1Cc1ccccc1`, with 19.7 µM. The same measure, in the same setting: in the case of `N#Cc1cccc(/C=C2/C=C(Cc3ccccc3)C(=O)O2)c1` it was more than 200 µM; in that of `O=C1O/C(=C\c2ccc(Cl)cc2)C=C1Cc1ccccc1`, more than 200 µM; in that of `COc1ccc(/C=C2/C=C(Cc3ccccc3)C(=O)O2)cc1O`, more than 200 µM. As for `O=C1O/C(=C\c2ccccc2C(F)(F)F)C=C1Cc1ccccc1`, the 50% inhibitory concentration (IC50) stood at 11.8 µM.

Target in a further assay: not listed separately
In words: Inhibition of photosynthetic electron transport protein complex in Spinacia oleracea (spinach) leaf thylakoid membranes measured at 30 seconds intervals for 10 min.
For `O=C1O/C(=C\c2cccc(F)c2)C=C1Cc1ccccc1`, the IC50 was 20.5 µM. In other words, the double-digit micromolar range. The same measure, in the same setting: in the case of `COc1cc(OC)c(/C=C2\C=C(Cc3ccccc3)C(=O)O2)c(OC)c1` it was 12.7 µM; in that of `CN(C)c1ccc(/C=C2/C=C(Cc3ccccc3)C(=O)O2)c(Cl)c1`, more than 200 µM. On the same count and under the same terms, in the case of `O=C1O/C(=C\c2cccc(Br)c2)C=C1Cc1ccccc1` it was 170 µM; in that of `CN(C)c1ccc(/C=C2/C=C(Cc3ccccc3)C(=O)O2)cc1`, more than 200 µM. Still for that read-out and setting: then `O=C1O/C(=C\c2cccc(Cl)c2)C=C1Cc1ccccc1`, with 44.7 µM; and `O=C1O/C(=C\c2ccccc2Br)C=C1Cc1ccccc1`, with 25.8 µM. Compound `CN(C)c1cccc(/C=C2/C=C(Cc3ccccc3)C(=O)O2)c1` registered an IC50 of 13.3 µM. Same read-out and setting: in the case of `O=C1O/C(=C\c2c(F)c(F)c(F)c(F)c2F)C=C1Cc1ccccc1` it was 75.2 µM. Same read-out and setting: then `CCc1ccc(/C=C2/C=C(Cc3ccccc3)C(=O)O2)cc1`, with 9.1 µM. On to `O=C1O/C(=C\c2ccccc2Cl)C=C1Cc1ccccc1`, for which inhibition was half-maximal at 19.1 µM (IC50). In the case of `O=C1O/C(=C\c2ccc(F)cc2)C=C1Cc1ccccc1`, it took 21.9 µM to reach half-maximal inhibition (IC50). The compound `Cc1cccc(/C=C2/C=C(Cc3ccccc3)C(=O)O2)c1` showed an IC50 of 73.8 µM. On to `O=C1O/C(=C\c2cccc([N+](=O)[O-])c2)C=C1Cc1ccccc1`, for which the IC50 amounted to 23.1 µM.

Source of the values: BindingDB's records for doi:10.1002/ps.1855 (2010).
